Results reported in ChEMBL document CHEMBL3734735, “The effect of N-methylation on transition state mimetic inhibitors of the Plasmodium protease, plasmepsin V” (Medchemcomm, 2015).
The source made the active and inactive calls. The calls are words filed in the database; no cut-off is given here. Square brackets hold non-standard residues; d marks the D form. Peptide text beside a SMILES is read from it. * marks the point of attachment. Sta = CC(C)C[C@H](N)[C@@H](O)CC(=O)O; NHPhenethyl = c1ccc(CCN*)cc1; NMeV = CN[C@H](C(=O)O)C(C)C; Cbz = O=C(OCc1ccccc1)*

Experiments:
Plasmepsin V = Plasmepsin V (Plasmodium falciparum (isolate 3D7), UniProt Q8I6Z5); test: Inhibition of HA-tagged transgenic Plasmodium falciparum plasmepsin 5 using DABCYL-RNKRTLAQKQ-E-EDANS as substrate after 120 mins by fluorescence plate reader analysis
Plasmodium falciparum = test: Antiparasitic activity against early ring-stage of Plasmodium falciparum 3D7 infected in human erythrocytes assessed as inhibition of parasite viability after 72 hrs by flow cytometric analysis; assay type: functional, organism-based; conditions: 3D7, 72 h
Serum = test: Metabolic stability in human serum at 5000 ng/ml at 37 degC measured over 55 hrs by LC-MS analysis; assay type: ADME
[1] = Stability in phosphate buffer at 5000 ng/ml at 37 degC at pH 7.4 measured over 24 hrs by LC-MS analysis in presence of porcine pancreatin; assay type: physicochemical; conditions: pig, pH 7.4, 24 h
[2] = target: Plasmepsin V (Plasmodium falciparum (isolate 3D7)) (UniProt Q8I6Z5); test: Inhibition of plasmepsin 5 in trophozoite stage of transgenic Plasmodium falciparum infected in erythrocytes assessed as suppression of PEXEL processing of GFP-fused EMP3 at 20 uM after 5 hrs by Western blot analysis; assay type: cell-based
HepG2 = test: Cytotoxicity against human HepG2 cells after 48 hrs by CellTiter Glo assay; assay type: cell-based; conditions: HepG2, 48 h

Chain of Plasmepsin V (Q8I6Z5 whole entry): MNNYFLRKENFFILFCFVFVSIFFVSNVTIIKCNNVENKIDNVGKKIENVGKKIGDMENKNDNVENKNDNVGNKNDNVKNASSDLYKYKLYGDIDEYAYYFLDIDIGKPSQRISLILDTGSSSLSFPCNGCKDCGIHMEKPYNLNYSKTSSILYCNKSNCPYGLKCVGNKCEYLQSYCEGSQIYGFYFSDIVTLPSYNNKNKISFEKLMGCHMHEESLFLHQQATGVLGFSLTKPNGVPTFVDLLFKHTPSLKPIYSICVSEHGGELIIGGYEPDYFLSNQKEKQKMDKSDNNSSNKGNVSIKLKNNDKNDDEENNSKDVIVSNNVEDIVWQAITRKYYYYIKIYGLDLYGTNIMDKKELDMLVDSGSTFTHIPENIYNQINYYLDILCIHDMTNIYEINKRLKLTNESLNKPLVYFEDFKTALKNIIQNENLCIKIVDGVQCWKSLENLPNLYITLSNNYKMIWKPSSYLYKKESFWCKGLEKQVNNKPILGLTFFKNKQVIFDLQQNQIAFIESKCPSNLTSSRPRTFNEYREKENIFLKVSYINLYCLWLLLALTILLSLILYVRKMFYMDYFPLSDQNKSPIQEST
Chain of Plasmepsin V (Plasmodium falciparum (isolate 3D7)) (Q8I6Z5 whole entry, looked up, the tested form may be a part): as the sequence (Q8I6Z5 whole entry) above

SMILES	IC50 (Plasmepsin V) [µM]	EC50 (Plasmodium falciparum) [µM]	Stability (Serum)	Stability [1]	inhibition [2]	EC50 (HepG2) [µM]
CC(C)C[C@H](NC(=O)[C@H](C)NC(=O)[C@H](CCCNC(=N)N)N(C)C(=O)OCc1ccccc1)[C@@H](O)CC(=O)NCCc1ccc(Cl)cc1	15.6	67.8	Stable	Stable	inactive	> 50
CCN(CC)CCCC(C)Nc1ccnc2cc(Cl)ccc12 (centres undefined) [CHLOROQUINE]		0.01				
CC(C)C[C@H](NC(=O)[C@H](C(C)C)N(C)C(=O)[C@H](CCCNC(=N)N)NC(=O)OCc1ccccc1)[C@@H](O)CC(=O)NCCc1ccccc1 (Cbz-Arg-[NMeV]-[Sta]-NHPhenethyl)	> 50	5.89			inactive	
CC(C)C[C@H](NC(=O)[C@H](C)NC(=O)[C@H](CCCNC(=N)N)NC(=O)OCc1ccccc1)[C@@H](O)CC(=O)N(C)CCc1ccc(Cl)cc1	5.35	20.3	Stable	Stable	inactive	> 50
CC(C)C[C@H](NC(=O)[C@H](C)N(C)C(=O)[C@H](CCCNC(=N)N)NC(=O)OCc1ccccc1)[C@@H](O)CC(=O)NCCc1ccc(Cl)cc1	48	23.2	Stable	Stable	inactive	> 50
CC(C)C[C@H](NC(=O)[C@@H](NC(=O)[C@H](CCCNC(=N)N)NC(=O)OCc1ccccc1)C(C)C)[C@@H](O)CC(=O)NCCc1ccccc1 (Cbz-Arg-Val-[Sta]-NHPhenethyl)	0.026	3.97			Active	> 50
COc1cc([C@@H]2c3cc4c(cc3[C@@H](O[C@@H]3O[C@@H]5CO[C@@H](C)O[C@H]5[C@H](O)[C@H]3O)[C@H]3COC(=O)[C@H]23)OCO4)cc(OC)c1O [ETOPOSIDE]						9.8
CC(C)C[C@@H]([C@@H](O)CC(=O)NCCc1ccc(Cl)cc1)N(C)C(=O)[C@H](C)NC(=O)[C@H](CCCNC(=N)N)NC(=O)OCc1ccccc1	0.89	29.2	Stable	Unstable	inactive	> 50
CC(C)C[C@H](NC(=O)[C@H](C)NC(=O)[C@H](CCCNC(=N)N)NC(=O)OCc1ccccc1)[C@@H](O)CC(=O)NCCc1ccc(Cl)cc1	0.3	15.3	Stable	Stable	Active	> 50
